Here are results for four molecules from PMC7571151, “Design, Synthesis and Bioactivity Evaluation of 4,6-Disubstituted Pyrido[3,2-d]pyrimidine Derivatives as Mnk and HDAC Inhibitors” (Molecules, 2020).

The structures appear in SMILES notation.

Series [1] deals with Daudi non-Hodgkin lymphoma xenograft model. Set-up: method as in PMID 22693356. As to conditions: cited from earlier work.
Another series deals with T1, Mnk1 (Homo sapiens, UniProt Q9BUB5).
T1 construct: 1.00 ng of Mnk1 or Mnk2 was incubated with different concentrations
T1 sequence (Q9BUB5 whole entry): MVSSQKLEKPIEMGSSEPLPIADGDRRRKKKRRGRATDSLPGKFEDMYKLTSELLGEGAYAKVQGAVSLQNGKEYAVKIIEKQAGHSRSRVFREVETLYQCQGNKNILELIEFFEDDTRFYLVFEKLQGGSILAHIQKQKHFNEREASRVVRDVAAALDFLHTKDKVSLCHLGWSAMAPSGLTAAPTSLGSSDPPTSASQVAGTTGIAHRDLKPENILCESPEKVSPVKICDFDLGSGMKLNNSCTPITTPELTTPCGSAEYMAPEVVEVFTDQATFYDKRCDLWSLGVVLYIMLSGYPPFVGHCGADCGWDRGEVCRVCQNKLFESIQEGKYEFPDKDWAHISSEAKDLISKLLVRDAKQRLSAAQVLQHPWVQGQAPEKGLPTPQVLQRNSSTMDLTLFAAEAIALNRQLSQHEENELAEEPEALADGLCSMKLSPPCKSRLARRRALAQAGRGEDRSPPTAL
As to the kind of experiment: Mnks inhibition HTRF assay (Mnk1). Type of series: biochemical. As to conditions: compound at 1 μM, 121 µM ATP, mean of triple independent experiments, read-out: %inhib. 1 μM Mnk1.

The target of a further series is Mnk2 (Homo sapiens, UniProt Q9HBH9). The series is described as follows: Mnks inhibition HTRF assay (Mnk2). It counts as biochemical. Conditions: compound at 1 μM, 39.2 µM ATP, mean of triple independent experiments, read-out: %inhib. 1 μM Mnk2. The method, then:
(§1) To investigate the HDAC and Mnk inhibitory potency of the target compounds, the inhibition rate of Mnk1 and Mnk2 at 1 μM were determined using homogeneous time-resolved fluorescence assay (HTRF) and the IC50 value against HDAC was determined by fluorescence analysis.
1.00 ng of Mnk1 or Mnk2 was incubated with different concentrations (10,000 nM, 1000 nM, 100 nM, 10 nM, and 1 nM) of test compounds in an 10 µL reaction mixture (Mnk1: 1 µM substrate S1, 10 mM MgCl2, 121 µM ATP, 1 × KinEASE enzymatic buffer and 1 mM dithiothreitol (DTT Mnk2: 1 µM substrate S1, 10 mM MgCl2, 39.2 µM ATP, 1 × KinEASE enzymatic buffer and 1 mM DTT for 60 min at 25 °C. The mixture of 5 µL SA-XL665 and 5 µL STK Ab detection reagents following the kit protocol was added to terminate the reaction.

In a further series the test system is HDACs. The series is described as follows: HDACs inhibition fluorescence assay (HeLa nuclear extracts). Conditions: substrate Boc-Lys(Ac)-AMC, mean of duplicate experiments. It counts as biochemical. Here is the method: as §1
The general procedure for the enzyme assay was carried out according to the published protocol with slight modification. For the HDACs assay, HeLa nuclear extracts (Enzo Life Sciences, NY, USA) were used as a source of histone deacetylase. All reactions were performed in the black half area 96-well microplates. A serial dilution of the inhibitors and enzymes were pre-incubated at 25 °C for 15 min, and then fluorogenic substrate Boc-Lys(Ac)-AMC was added. After incubation at 37 °C for 60 min, the mixture was stopped by the addition of […] of developer containing trypsin and vorinostat for 10 min. Fluorescence intensity was measured using a Varioskan Flash Station (Thermo Scientific, MA, USA) at excitation and emission wavelengths of 355 (or 360 for the HeLa NuEx) and 460 nm, respectively. The IC50 values were extracted by curve fitting the dose/response slopes.

A further series deals with PC-3 cells. The series is described as follows: Anti-proliferative MTT assay. Type of series: cell-based. Conditions: Homo sapiens, 96 h incubation, mean of three experiments. The method, then:
As Mnks and HDACs are overexpressed in prostate cancer, the GI50 values of the target compounds against PC-3 cell line were determined by an MTT assay. […] When the zinc-binding motif was hydroxamic acid, the anti-proliferative effect was better than o-phenylenediamine (except A03 and A04). The length of the flexible linker has a significant influence on the anti-proliferative activity: compounds containing a NH unite and 6 methylene groups were greatly better than compounds containing a NH unite and 5 methylene groups (A11 vs. A12).
The human prostatic cancer PC-3 cell line was cultured in RPMI1640 with 10% (v/v) heat-inactivated fetal bovine serum. The anti-proliferative activity of synthetic compounds were evaluated by the methylthiazolyltetrazolium bromide (MTT) assay. Cells (2 × 10^4 cells/well) were incubated in a humidified atmosphere with 5% CO2 at 37 °C for 24 h, then various concentrations of each compound mixed in […] medium were added to each well. After incubated for another 96 h, MTT solution (50 μL of 2 mg/mL) was added to each well and incubated for an additional 4 h. The medium was removed by aspiration and the cells were dissolved in […] DMSO. The absorbance at 570 nm was measured in the 96-well plate reader. Growth inhibition was calculated and expressed as the ratio of the cell number in the treated group to that of the untreated group. The GI50 values were calculated according to inhibition ratios. All experiments were performed three times independently, and the results were reported presented as the mean.

Sequence of Mnk2 (Q9HBH9 whole entry): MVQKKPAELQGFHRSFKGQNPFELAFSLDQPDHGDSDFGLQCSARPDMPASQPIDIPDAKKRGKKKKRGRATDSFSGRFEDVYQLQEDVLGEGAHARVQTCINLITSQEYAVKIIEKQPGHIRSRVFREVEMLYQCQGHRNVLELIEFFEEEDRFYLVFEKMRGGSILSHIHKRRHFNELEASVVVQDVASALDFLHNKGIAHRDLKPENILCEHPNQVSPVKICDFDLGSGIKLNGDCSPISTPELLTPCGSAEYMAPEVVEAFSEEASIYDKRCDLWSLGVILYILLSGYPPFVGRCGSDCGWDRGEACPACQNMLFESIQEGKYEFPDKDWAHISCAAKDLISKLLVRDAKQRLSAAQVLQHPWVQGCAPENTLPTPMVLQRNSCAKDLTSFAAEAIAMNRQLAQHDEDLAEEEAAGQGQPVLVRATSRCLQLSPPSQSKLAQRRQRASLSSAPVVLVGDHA

With `COc1ccc(-c2nc(N3CCOCC3)c3sc(CN(C)c4ncc(C(=O)NO)cn4)cc3n2)cn1` [CUDC-907], in series [1] (Daudi non-Hodgkin lymphoma xenograft model), the tumor growth result is on record as “inhibited tumor growth in a dose-dependent manner”. In series [1] (in vivo anti-tumor activity studies), the “Ac-H3 and p-AKT levels” value was “accumulation of Ac-H3 and a decrease in p-AKT levels”.

`Nc1ccccc1NC(=O)c1ccc(COc2ccc3ncnc(Nc4ccc(F)cc4)c3n2)cc1` [Compound A03, N-(2-Aminophenyl)-4-(((4-((4-fluorophenyl)amino)pyrido[3,2-d]pyrimidin-6-yl)oxy)methyl)benzamide] registered a melting point of 216.3 to 218 °C. Further, the inhibition at 1 µM on Mnk1 is 33%. Further, the inhibition at 1 µM at Mnk2 was 50%. In the series on HDACs, the IC50 was 6.5 µM. In the series with PC-3 cells, growth was halved (GI50) at 7.5 µM.

As for `Nc1ccccc1NC(=O)CCCCCCNc1ccc2ncnc(Nc3ccc(F)cc3)c2n1` [Compound A06, N-(2-Aminophenyl)-7-((4-((4-fluorophenyl)amino)pyrido[3,2-d]pyrimidin-6-yl)amino)heptanamide], the melting point lay within 125.6 to 127 °C. At Mnk1, the inhibition at 1 µM was 29%. Further, the inhibition at 1 µM on Mnk2 was 38%. The IC50 with HDACs was > 10 µM. The GI50 in the series on PC-3 cells is > 20 µM.

For the molecule `O=C(NO)c1ccc(CNc2ccc3ncnc(Nc4ccc(F)cc4)c3n2)cc1` [Compound A10, 4-(((4-((4-Fluorophenyl)amino)pyrido[3,2-d]pyrimidin-6-yl)amino)methyl)-N-hydroxybenzamide], the melting point is 197.7 to 199.3 °C. At Mnk1, the inhibition at 1 µM is 24%. The inhibition at 1 µM at Mnk2 stood at 43%. Further, in the series on HDACs, the IC50 was determined as 2.18 µM. Besides, the GI50 in the series with PC-3 cells stood at 18.3 µM.
